# According to patent US20260217708A1, “FUSED BENZAZEPINE DERIVATIVES FOR USE IN THE TREATMENT OF CANCER AND EPILEPSY” (UCB BIOPHARMA SRL, priority 2023, published 2026):
# What was measured:
# [1] = target: T1, system Xc^− (Homo sapiens, UniProt Q9UPY5); assay: [^14C]L-Cystine uptake assay; type: cell-based; set-up: endogenous in cells; host or cells: H4 cells; conditions: H4 cells, sodium-free HEPES buffer, 0.5 μM L-[14C]Cystine and 4.5 μM L-Cystine, 1 hour at 37° C.; read-out: pIC50 [^14C] L-Cystine uptake assay (converted)
# T1 sequence (Q9UPY5 1-501): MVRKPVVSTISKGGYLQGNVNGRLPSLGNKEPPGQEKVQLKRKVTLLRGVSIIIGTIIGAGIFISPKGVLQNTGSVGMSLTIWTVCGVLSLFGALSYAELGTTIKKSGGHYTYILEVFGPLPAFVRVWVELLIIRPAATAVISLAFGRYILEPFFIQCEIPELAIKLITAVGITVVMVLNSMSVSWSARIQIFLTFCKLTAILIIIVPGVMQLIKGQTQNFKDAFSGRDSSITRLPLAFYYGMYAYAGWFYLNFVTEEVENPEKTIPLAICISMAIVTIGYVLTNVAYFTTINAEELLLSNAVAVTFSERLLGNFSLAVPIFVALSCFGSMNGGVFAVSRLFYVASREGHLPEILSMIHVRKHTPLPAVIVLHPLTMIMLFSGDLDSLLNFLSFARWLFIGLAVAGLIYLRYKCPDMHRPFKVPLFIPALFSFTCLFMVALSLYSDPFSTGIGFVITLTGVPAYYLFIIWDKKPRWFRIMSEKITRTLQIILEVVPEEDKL
# T1 sequence (P08195 1-529 partner): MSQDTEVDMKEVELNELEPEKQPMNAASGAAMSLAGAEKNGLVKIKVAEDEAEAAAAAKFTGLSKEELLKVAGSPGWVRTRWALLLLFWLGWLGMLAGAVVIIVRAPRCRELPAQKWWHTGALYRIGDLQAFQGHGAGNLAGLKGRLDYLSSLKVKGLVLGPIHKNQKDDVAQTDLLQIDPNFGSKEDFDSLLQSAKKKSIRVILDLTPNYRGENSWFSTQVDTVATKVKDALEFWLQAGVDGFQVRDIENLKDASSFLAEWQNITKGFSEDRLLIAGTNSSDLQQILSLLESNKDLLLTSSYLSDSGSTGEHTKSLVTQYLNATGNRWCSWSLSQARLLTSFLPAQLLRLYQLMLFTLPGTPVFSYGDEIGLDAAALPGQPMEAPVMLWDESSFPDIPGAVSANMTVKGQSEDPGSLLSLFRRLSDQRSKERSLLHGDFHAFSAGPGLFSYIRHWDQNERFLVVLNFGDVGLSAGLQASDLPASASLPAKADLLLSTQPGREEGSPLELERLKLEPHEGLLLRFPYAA
# How it was run: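 H4 cells at 5×10^4 cells/well in sodium-free HEPES buffer were preincubated 15 min with compounds (1% DMSO). Uptake of 0.5 μM [14C]L-cystine plus 4.5 μM unlabelled L-cystine ran 1 hour at 37° C on scintillating plates. IC50 was set between 1% DMSO and 50 μM Erastin controls and expressed as pIC50.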
# [2] = target: T1, system Xc^−; assay: Cystine-induced glutamate release assay; type: cell-based; set-up: endogenous in cells; host or cells: H4 cells; conditions: H4 cells, sodium-free HEPES buffer, 50 μM L-Cystine, 2 hours, Amplex Red glutamate readout; read-out: pIC50 Cystine-induced glutamate release assay (converted)
# How it was run: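 H4 cells in sodium-free HEPES buffer (pH 7.4), 2 days after plating; glutamate release induced with 50 μM L-cystine plus compound (1% DMSO), 2 h at 37 °C. Supernatant glutamate measured by Amplex Red fluorescence; IC50/pIC50 derived between 1% DMSO and 50 μM erastin controls.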
Structure (SMILES),IC50 [1] [nM],IC50 [2] [nM]
"O=C(CN1C(=O)Cc2ncccc2-c2c1cc(N1CC3(CC3)C1)nc2F)Nc1ccc(C(F)F)cc1 [#294, 2-[5-(5-azaspiro[2.3]hexan-5-yl)-3-fluoro-9-oxo-4,8,12-triazatricyclo[9.4.0.0^2,7]pentadeca-1(15),2,4,6,11,13-hexaen-8-yl]-N-[4-(difluoromethyl)phenyl]acetamide]",39.8 to 100,15.8 to 39.8
"O=C(CN1C(=O)Cc2ncccc2-c2c1cc(N1CC(F)(F)C1)nc2F)Nc1ccc(C(F)F)cc1 [#295, 2-[5-(3,3-difluoroazetidin-1-yl)-3-fluoro-9-oxo-4,8,12-triazatricyclo[9.4.0.0^2,7]pentadeca-1(15),2,4,6,11,13-hexaen-8-yl]-N-[4-(difluoromethyl)phenyl]acetamide]",< 15.8,< 15.8
"O=C(CN1C(=O)Cc2cc(F)ccc2-c2c1cc(N1CC(F)(F)C1)nc2F)Nc1ccc(C(F)F)cc1 [#296, 2-[3-(3,3-difluoroazetidin-1-yl)-1,9-difluoro-6-oxo-7H-pyrido[4,3-d][3]benzazepin-5-yl]-N-[4-(difluoromethyl)phenyl]acetamide]",15.8 to 39.8,39.8 to 100
"CC1C(=O)N(CC(=O)Nc2ccc(C(F)F)cc2)c2cc(C3CC3)c(=O)n(C)c2-c2ccccc21 (stereo not shown) [#322, 2-(3-cyclopropyl-1,7-dimethyl-2,6-dioxo-7H-pyrido[3,2-d][3]benzazepin-5-yl)-N-[4-(difluoromethyl)phenyl]acetamide]",39.8 to 100,15.8 to 39.8
"O=C(CN1C(=O)Cc2ccccc2-c2c1cc(C(F)F)nc2Cl)Nc1ccc(C(F)F)cc1 [#339, 2-[1-chloro-3-(difluoromethyl)-6-oxo-7H-pyrido[4,3-d][3]benzazepin-5-yl]-N-[4-(difluoromethyl)phenyl]acetamide]",< 15.8,< 15.8

# Next, values leading:
IC50 [1] [nM],IC50 [2] [nM],Structure (SMILES)
15.8 to 39.8,15.8 to 39.8,"CC1C(=O)N(CC(=O)Nc2ccc(C(F)F)cc2)c2cc(N3CC[C@H]3CO)nc(F)c2-c2cccnc21 (stereo partly drawn) [#272, N-[4-(difluoromethyl)phenyl]-2-[3-fluoro-5-[(2S)-2-(hydroxymethyl)azetidin-1-yl]-10-methyl-9-oxo-4,8,12-triazatricyclo[9.4.0.0^2,7]pentadeca-1(15),2,4,6,11,13-hexaen-8-yl]acetamide]"
< 15.8,< 15.8,"CC1C(=O)N(CC(=O)Nc2ccc(C(F)F)cc2)c2cc(N3CC[C@@H]3CO)nc(F)c2-c2cccnc21 (stereo partly drawn) [#273, N-[4-(difluoromethyl)phenyl]-2-[3-fluoro-5-[(2R)-2-(hydroxymethyl)azetidin-1-yl]-10-methyl-9-oxo-4,8,12-triazatricyclo[9.4.0.0^2,7]pentadeca-1(15),2,4,6,11,13-hexaen-8-yl]acetamide]"
39.8 to 100,15.8 to 39.8,"COc1ccc2c(c1)N(CC(=O)Nc1ccc(Cl)c(F)c1)C(=O)C(C)c1ncccc1-2 (stereo not shown) [#306, N-(4-chloro-3-fluoro-phenyl)-2-(9-methoxy-5-methyl-6-oxo-5H-pyrido[2,3-d][1]benzazepin-7-yl)acetamide]"
39.8 to 100,< 15.8,"CC1C(=O)N(CC(=O)Nc2ccc(Cl)c(F)c2)c2cc(C#N)ccc2-c2cccnc21 (stereo not shown) [#311, N-(4-chloro-3-fluoro-phenyl)-2-(9-cyano-5-methyl-6-oxo-5H-pyrido[2,3-d][1]benzazepin-7-yl)acetamide]"
15.8 to 39.8,15.8 to 39.8,"CC1C(=O)N(CC(=O)Nc2ccc(Cl)c(F)c2)c2cc(C3CC3)c(=O)n(C)c2-c2ccccc21 (stereo not shown) [#321, N-(4-chloro-3-fluoro-phenyl)-2-(3-cyclopropyl-1,7-dimethyl-2,6-dioxo-7H-pyrido[3,2-d][3]benzazepin-5-yl)acetamide]"
39.8 to 100,15.8 to 39.8,"CC1C(=O)N(CC(=O)Nc2ccc(Cl)c(F)c2)c2cc(C(F)F)ccc2-c2cccnc21 (stereo not shown) [#341, N-(4-chloro-3-fluoro-phenyl)-2-[9-(difluoromethyl)-5-methyl-6-oxo-5H-pyrido[2,3-d][1]benzazepin-7-yl]acetamide]"
